Experimental data reported in patent US11254686B1 (Corvus Pharmaceuticals, Inc., priority 2017, dated 2022).

Experiments:
adenosine A2A receptor = adenosine A2A receptor (Homo sapiens (Human), UniProt P29274); assay: Adenosine receptor activity assay (Table 1), A2A activity; format: biochemical; conditions: read-out: Ave A2A cAMP IC50
adenosine A2B receptor = adenosine A2B receptor (Homo sapiens (Human), UniProt P29275); assay: Adenosine receptor activity assay (Table 1), A2B activity; format: biochemical; conditions: for Ratio: A2A activity to the A2B activity, A2A/A2B; for IC50: read-out: Ave A2B cAMP IC50
Sequence of adenosine A2B receptor (P29275 whole entry): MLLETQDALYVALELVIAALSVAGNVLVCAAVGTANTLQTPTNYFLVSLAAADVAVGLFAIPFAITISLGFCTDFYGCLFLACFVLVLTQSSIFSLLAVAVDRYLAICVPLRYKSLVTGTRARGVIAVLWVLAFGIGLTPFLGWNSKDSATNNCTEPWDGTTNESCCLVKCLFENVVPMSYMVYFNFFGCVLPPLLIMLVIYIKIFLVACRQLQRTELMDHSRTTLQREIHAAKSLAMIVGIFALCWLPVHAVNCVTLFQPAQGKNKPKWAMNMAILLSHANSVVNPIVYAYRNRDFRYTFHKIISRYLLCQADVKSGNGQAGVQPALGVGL

Sequence of adenosine A2A receptor (P29274 whole entry): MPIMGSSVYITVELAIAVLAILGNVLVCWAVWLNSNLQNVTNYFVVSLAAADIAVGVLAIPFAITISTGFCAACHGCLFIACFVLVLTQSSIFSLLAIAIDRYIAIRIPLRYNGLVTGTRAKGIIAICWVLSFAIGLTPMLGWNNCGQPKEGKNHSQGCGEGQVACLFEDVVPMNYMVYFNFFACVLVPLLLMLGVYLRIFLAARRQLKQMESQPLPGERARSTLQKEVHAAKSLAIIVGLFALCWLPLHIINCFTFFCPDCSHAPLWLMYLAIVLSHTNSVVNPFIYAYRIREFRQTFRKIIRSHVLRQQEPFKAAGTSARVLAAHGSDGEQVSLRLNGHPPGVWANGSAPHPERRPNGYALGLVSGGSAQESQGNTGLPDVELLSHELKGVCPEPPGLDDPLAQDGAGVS

Row | SMILES | IC50 (adenosine A2A receptor) [nM] | Ratio (adenosine A2B receptor) | IC50 (adenosine A2B receptor) [nM]
1 | C[C@H](Nc1nc(C(=O)NCCc2ccc(S(C)(=O)=O)cc2)c2sccc2n1)c1cncc(F)c1 [Example Z455, (S)-2-((1-(5-Fluoropyridin-3-yl)ethyl)amino)-N-(4-(methylsulfonyl)phenethyl)thieno[3,2-d]pyrimidine-4-carboxamide] | > 500 | 3.91 | 100 to 500
2 | Cc1cc2nc(N[C@@H](C)c3cccnc3)nc(C(=O)NCc3ccccn3)c2s1 [Example Z457, (S)-6-Methyl-N-(pyridin-2-ylmethyl)-2-((1-(pyridin-3-yl)ethyl)amino)thieno[3,2-d]pyrimidine-4-carboxamide] | 100 to 500 | 2.73 | 50 to 100
3 | CCNC(=O)c1nc(NCCc2ccc(O)cc2)nc2ccsc12 [Example Z460, N-Ethyl-2-((4-hydroxyphenethyl)amino)thieno[3,2-d]pyrimidine-4-carboxamide] | 100 to 500 | 0.84 | 100 to 500
4 | COc1ccc([C@H](C)Nc2nc(C(=O)NCc3ccccn3)c3sccc3n2)cc1 [Example Z466, (S)-2-((1-(4-Methoxyphenyl)ethyl)amino)-N-(pyridin-2-ylmethyl)thieno[3,2-d]pyrimidine-4-carboxamide] | 10 to 50 | 0.05 | > 500
5 | COC[C@H]1CCN(C(=O)c2nc(N[C@@H](C)c3ccccn3)nc3ccsc23)C1 [Example Z470, ((S)-3-(Methoxymethyl)pyrrolidin-1-yl)(2-(((S)-1-(pyridin-2-yl)ethyl)amino)thieno[3,2-d]pyrimidin-4-yl)methanone] | 100 to 500 | 1.07 | 50 to 100
6 | COC[C@@H]1CCN(C(=O)c2nc(N[C@@H](C)c3ccccn3)nc3ccsc23)C1 [Example Z471, ((R)-3-(Methoxymethyl)pyrrolidin-1-yl)(2-(((S)-1-(pyridin-2-yl)ethyl)amino)thieno[3,2-d]pyrimidin-4-yl)methanone] | 100 to 500 | 7.81 | 50 to 100
7 | COc1ccc(CNC(=O)c2nc(N[C@@H](C)c3ccccn3)nc3ccsc23)cc1 [Example Z474, (S)—N-(4-Methoxybenzyl)-2-((1-(pyridin-2-yl)ethyl)amino)thieno[3,2-d]pyrimidine-4-carboxamide] | 50 to 100 | 0.80 | 50 to 100
8 | COC1(C)CN(C(=O)c2nc(N[C@@H](C)c3ccccn3)nc3ccsc23)C1 [Example Z486, (S)-(3-Methoxy-3-methylazetidin-1-yl)(2-((1-(pyridin-2-yl)ethyl)amino)thieno[3,2-d]pyrimidin-4-yl)methanone] | > 500 | 10.58 | 50 to 100
9 | C[C@H](Nc1nc(C(=O)NCCc2ccc(N)cc2)c2sccc2n1)c1cncc(F)c1 [Example Z493, (S)—N-(4-Aminophenethyl)-2-((1-(5-fluoropyridin-3-yl)ethyl)amino)thieno[3,2-d]pyrimidine-4-carboxamide] | > 500 | 17.90 | 50 to 100
10 | Cc1cc2nc(N[C@@H](C)c3cccnc3)nc(C(=O)NCC[C@@H]3CCNC3)c2s1 [Example Z500, 6-Methyl-2-(((S)-1-(pyridin-3-yl)ethyl)amino)-N-(2-((S)-pyrrolidin-3-yl)ethyl)thieno[3,2-d]pyrimidine-4-carboxamide] | > 500 | 12.75 | > 500
11 | Cc1cc2nc(N[C@@H](C)c3cccnc3)nc(C(=O)NCC[C@H]3CCNC3)c2s1 [Example Z501, 6-Methyl-2-(((S)-1-(pyridin-3-yl)ethyl)amino)-N-(2-((R)-pyrrolidin-3-yl)ethyl)thieno[3,2-d]pyrimidine-4-carboxamide] | > 500 | 8.68 | > 500
12 | Cc1cc2nc(N[C@@H](C)c3cccnc3)nc(C(=O)N[C@H]3C[C@@H](O)C3)c2s1 [Example Z503, N-((1s,3R)-3-hydroxycyclobutyl)-6-methyl-2-(((S)-1-(pyridin-3-yl)ethyl)amino)thieno[3,2-d]pyrimidine-4-carboxamide] | > 500 | 18.01 | 10 to 50
13 | COCC1CN(C(=O)c2nc(N[C@@H](C)c3ccccn3)nc3cc(C)sc23)C1 [Example Z514, (S)-(3-(Methoxymethyl)azetidin-1-yl)(6-methyl-2-((1-(pyridin-2-yl)ethyl)amino)thieno[3,2-d]pyrimidin-4-yl)methanone] | 10 to 50 | 5.47 | < 10
14 | Cc1cc2nc(N[C@@H](C)c3cncc(F)c3)nc(C(=O)NCC3CCNCC3)c2s1 [Example Z534, (S)-2-((1-(5-Fluoropyridin-3-yl)ethyl)amino)-6-methyl-N-(piperidin-4-ylmethyl)thieno[3,2-d]pyrimidine-4-carboxamide] | > 500 | 57.93 | 50 to 100

Second part, the molecule after the results:

Row | IC50 (adenosine A2A receptor) [nM] | Ratio (adenosine A2B receptor) | IC50 (adenosine A2B receptor) [nM] | SMILES
15 | > 500 | 8.61 | 10 to 50 | C[C@H](Nc1nc(C(=O)N2CC[C@H](NC(=O)OCc3ccccc3)C2)c2sccc2n1)c1cncc(F)c1 [Example Z472, Benzyl ((S)-1-(2-(((S)-1-(5-fluoropyridin-3-yl)ethyl)amino)thieno[3,2-d]pyrimidine-4-carbonyl)pyrrolidin-3-yl)carbamate]
16 | > 500 | 5.32 | 100 to 500 | C[C@H](Nc1nc(C(=O)NCCc2ccc(NC(=O)OC(C)(C)C)cc2)c2sccc2n1)c1cncc(F)c1 [Example Z482, tert-Butyl (S)-(4-(2-(2-((1-(5-fluoropyridin-3-yl)ethyl)amino)thieno[3,2-d]pyrimidine-4-carboxamido)ethyl)phenyl)carbamate]
17 | 100 to 500 | 4.16 | 10 to 50 | Cc1cc2nc(N[C@@H](C)c3cncc(F)c3)nc(C(=O)N3CC(N(C)C(=O)OC(C)(C)C)C3)c2s1 [Example Z484, tert-Butyl (S)-(1-(2-((1-(5-fluoropyridin-3-yl)ethyl)amino)-6-methylthieno[3,2-d]pyrimidine-4-carbonyl)azetidin-3-yl)(methyl)carbamate]
18 | > 500 | 6.54 | 100 to 500 | Cc1cc2nc(N[C@@H](C)c3cncc(F)c3)nc(C(=O)NCCC3CCN(C(=O)OC(C)(C)C)CC3)c2s1 [Example Z487, tert-Butyl (S)-4-(2-(2-((1-(5-fluoropyridin-3-yl)ethyl)amino)-6-methylthieno[3,2-d]pyrimidine-4-carboxamido)ethyl)piperidine-1-carboxylate]
19 | > 500 | 5.78 | 100 to 500 | Cc1cc2nc(N[C@@H](C)c3cccnc3)nc(C(=O)N3CC(CNC(=O)OC(C)(C)C)C3)c2s1 [Example Z498, tert-Butyl (S)-((1-(6-methyl-2-((1-(pyridin-3-yl)ethyl)amino)thieno[3,2-d]pyrimidine-4-carbonyl)azetidin-3-yl)methyl)carbamate]
20 | > 500 | 13.99 | > 500 | Cc1cc2nc(N[C@@H](C)c3cccnc3)nc(C(=O)N3CC(CN)C3)c2s1 [Example Z499, (S)-(3-(Aminomethyl)azetidin-1-yl)(6-methyl-2-((1-(pyridin-3-yl)ethyl)amino)thieno[3,2-d]pyrimidin-4-yl)methanone]
21 | 50 to 100 | 4.89 | 10 to 50 | Cc1cc2nc(N[C@@H](C)c3cncc(F)c3)nc(C(=O)N3CC(CN(C)C)C3)c2s1 [Example Z502, (S)-(3-((Dimethylamino)methyl)azetidin-1-yl)(2-((1-(5-fluoropyridin-3-yl)ethyl)amino)-6-methylthieno[3,2-d]pyrimidin-4-yl)methanone]
22 | 100 to 500 |  | 100 to 500 | Cc1cc2nc(N[C@@H](C)c3cccnc3)nc(C(=O)N3CC(CNC(=O)C(C)(C)C)C3)c2s1 [Example Z505, (S)—N-((1-(6-Methyl-2-((1-(pyridin-3-yl)ethyl)amino)thieno[3,2-d]pyrimidine-4-carbonyl)azetidin-3-yl)methyl)pivalamide]
23 | > 500 | 8.08 | > 500 | Cc1cc2nc(N[C@@H](C)c3cccnc3)nc(C(=O)N3CC(CN(C)C)C3)c2s1 [Example Z516, (S)-(3-((Dimethylamino)methyl)azetidin-1-yl)(6-methyl-2-((1-(pyridin-3-yl)ethyl)amino)thieno[3,2-d]pyrimidin-4-yl)methanone]
24 | > 500 | 0.06 | > 500 | Cc1cc2nc(N[C@@H](C)c3cncc(F)c3)nc(C(=O)NCCC3CN(C(=O)C(F)(F)F)C3)c2s1 [Example Z521, (S)-2-((1-(5-Fluoropyridin-3-yl)ethyl)amino)-6-methyl-N-(2-(1-(2,2,2-trifluoroacetyl)azetidin-3-yl)ethyl)thieno[3,2-d]pyrimidine-4-carboxamide]
25 | 100 to 500 | 3.05 | 50 to 100 | C[C@H](Nc1nc(C(=O)N2CC(CN(C)C(=O)OC(C)(C)C)C2)c2sccc2n1)c1cncc(F)c1 [Example Z525, tert-Butyl (S)-((1-(2-((1-(5-Fluoropyridin-3-yl)ethyl)amino)thieno[3,2-d]pyrimidine-4-carbonyl)azetidin-3-yl)methyl)(methyl)carbamate]
26 | > 500 | 7.31 | 50 to 100 | Cc1cc2nc(N[C@@H](C)c3ccccn3)nc(C(=O)N3CC(CNC(=O)C(C)(C)C)C3)c2s1 [Example Z527, (S)—N-((1-(6-Methyl-2-((1-(pyridin-2-yl)ethyl)amino)thieno[3,2-d]pyrimidine-4-carbonyl)azetidin-3-yl)methyl)pivalamide]
27 | 100 to 500 |  | 100 to 500 | CC(=O)NC1CN(C(=O)c2nc(N[C@@H](C)c3ccccn3)nc3ccsc23)C1 [Example Z533, (S)—N-(1-(2-((1-(pyridin-2-yl)ethyl)amino)thieno[3,2-d]pyrimidine-4-carbonyl)azetidin-3-yl)acetamide]
28 | > 500 | 10.26 | > 500 | C[C@H](Nc1nc(C(=O)NCCN)c2sccc2n1)c1cncc(F)c1 [Example Z536, (S)—N-(2-Aminoethyl)-2-((1-(5-fluoropyridin-3-yl)ethyl)amino)thieno[3,2-d]pyrimidine-4-carboxamide]
